Patent US20250195660A1, “INACTIVATING BACTERIA WITH ELECTRIC PULSES AND ANTIBIOTICS” (Purdue Research Foundation, priority 2018, published 2025)

What was measured:
[1] = system: carbapenem-resistant Escherichia coli (ATCC BA-2452, NDM-1 positive); experiment: Inactivation of carbapenem-resistant E. coli by 300 ns electric pulses and/or antibiotics (CFU plating); assay type: cell-based; settings: 30 kV/cm NSEPs + 20 μg/mL
Description: (§1) Except for rifampicin, the five other antibiotics in these examples primarily target gram-positive bacteria and are largely ineffective or not used against gram-negative bacteria in a clinical setting.
(§2) A Blumlein pulsed generator consisting of two lines comprised of twelve 2000 pF capacitors connected by inductors produced 300 ns EPs with rise-times of 30 ns and fall-times of 35 ns at a repetition frequency of 1 Hz (12). The EPs were applied to a standard 2 mm gap electroporation cuvette (Dot Scientific R) filled with a solution containing the microorganisms. Used was a Luria broth of 0.5% salinity (5 grams of NaCl/Liter) for the solution to electrically match the resistance of the sample with the impedance of the pulse generator (11Ω) to prevent signal reflection. The voltage measurements were taken using a LeCroy PPE 20 kV high voltage probe with a 1000:1 attenuation recorded by a TeleDyne LeCroy® Waverunner 6 Zi Oscilloscope with a bandwidth of 4 GHZ.
(§3) The gram-negative strains included a carbapenem-resistant Escherichia coli (ATCC® BA-2452TM, New Delhi metallo-beta-lactamase NDM-1 positive.), Klebsiella pneumoniae (ATCC® BAA-2146TM NDM-I positive), and a gentamicin, streptomycin and sulfonamide resistant Pseudomonas aeruginosa (BEI Resources NR-31040). Assessed was the gram-positive strain of methicillin resistant Staphylococcus aureus (USA300-0114 strain), which is also resistant to erythromycin and tetracycline. Samples were cultured in Luria broth (LB Broth Lennox, powder microbial growth medium, SIGMA-ALDRICH®) by taking 25 mL of broth in a 50 mL sterile conical tube and incubating in a shaker for 16 h at 37° C. Samples were diluted 50% by adding 25 mL media to the incubated sample as we plated controls for each experiment and condition.
Samples were treated in 2 mm gap cuvettes containing 365 μL of sample between the electrodes, with bio-grade mineral oil added on top of the electrode plates to prevent arcing.
To establish a common baseline for comparing different NSEP parameters, we fixed the energy density U delivered to the cuvettes according to Formula (1) (above). For 300 ns EPs, 500 EPs at 20 kV/cm and 222 EPs at 30 kV/cm delivered the same energy to the sample.
Tissue culture Petri dishes from VWR R (15 cm diameter, 10 mm height) were utilized for plating. Each plate was covered with 15 mL of Luria broth (Agar, microbiology tested powder, SIGMA-ALDRICH®), which was prepared by adding 20 g of LB Lennox (SIGMA-ALDRICH) and 15 g/L of agar to water prior to being autoclaved. The salinity of the agar was the same as the LB (0.5% NaCl) to minimize additional environmental stressors on the bacteria.
Removed was 20 μL from each cuvette and added to 180 μL of PBS in a 96-well dish in triplicate. Each well was then diluted by a ratio of 10:1 five additional times by taking 20 μL of the diluted sample into subsequent wells using multi-channel pipettes (using fresh tips for each dilution). Plated were the six dilutions of each sample two times each by adding 4 μL from each well onto the Petri dish using a multi-channel pipette, which allowed the plating of all three replicates on the same plate to achieve n=6. These plates were then cultured overnight in an incubator at 37° C., and counted the next day.

[2] = system: Stapphylococcus aureus (gram positive bacterium number 25923); experiment: Inactivation of S. aureus by 300 ns electric pulses combined with antibiotic (CFU plating); assay type: cell-based, Staphylococcus aureus
Experimental: Equipment. Used was a capacitor based Blumlein pulse generator with a spark gap switch to produce trapezoidal EPs of 300 ns duration at the peak with rise and fall times close to 50 ns. Multiple pulses were delivered at a frequency of 1 Hz.
The samples were treated in a standard electroporation cuvette (Dot Scientific) whose resistance must match the pulse generator's impedance to prevent pulse reflection. Utilizing Luria broth, containing 0.5% NaCl, in a cuvette with gap distances of 1 mm and 2 mm yielded the best electrical match (no reflections in the measured signal). Used were 2 mm cuvettes to ensure consistency between tests, and the applied voltage was measured across the cuvette using a LeCroy PPE 20 kV high voltage probe with a 1000:1 attenuation feeding into a TeleDyne LeCroy Waverunner 6 Zi Oscilloscope capable of measuring signals up to 4 GHz. Assuming a purely parallel plate geometry with minimal fringing gives an electric field E=V/d, where V is the peak voltage of the applied pulse and d is the gap distance.
Sample Preparation. These experiments assessed Stapphylococcus aureus (gram positive bacterium number 25923) from ATCC and Esherichia coli (gram negative bacterium number 25922) inoculated in luria broth (LB Broth Lennox, powder microbial growth medium. SIGMA-ALDRICH) by taking 8 mL of broth in a 50 mL sterile conical tube and incubating in a shaker for 20 h at 37° C. The sample was then diluted with fresh Luria broth until attaining an optical density of 0.25 for 100 μL on a photospectrometer (Molecular Devices) for a wavelength of 562 nm as measured in a 96-well plate. The optical density, which varies with growth or tube volume, was determined experimentally and set between 1×10^8 and 1.5×10^8 colony forming units (CFUs)/mL for the samples to be pulsed. These samples were then plated at dilutions between 10-6 and 100 (no dilution) depending on the effectiveness of the pulse treatments.
Electric Pulse Treatment Protocol. […] Although no consensus exists on a universal scaling law for applied EP “dose,” we fixed the energy density
[formula] • where N is the number of pulses and τ is the pulse duration. Fixing U for E=40, 30, and 20 kV/cm gave N=250, 445, and 1000 pulses, respectively. Cultures were plated as described below.
Cuvettes were filled with 365 μL of sample (sufficient to just cover the electrodes) and then 250 μL of molecular biology grade mineral oil was placed on top. Keeping the samples on ice upon achieving the required dilution further reduced experimental variability by slowing biological processes, such as fission This facilitated the assessment of the inactivation efficiency of EPs, drugs, and combined treatments.
Tests used the clinically relevant, bactericidal drug tobramycin, which targets the 30S and 50S ribosome complex and has a clinical dose from 4 to 5 μg/mL and rifampicin, which inhibits bacterial […]. Added were 0.2, 2, and 20 μg/mL of each drug to the initial bacterial dilutions prior to pulsing. Samples were immediately placed on ice to minimize cell division and reduce variability. These aliquots were also used to plate individual unpulsed controls for each drug concentration.
Plating. Plating was done on standard disposable tissue culture Petri dishes from VWR (15 cm diameter, 10 mm height) and covered with 10 mL of agar in luria broth (Agar, microbiology tested powder, SIGMA-ALDRICH), which was prepared by adding 20 g of LB lennox (SIGMA-ALDRICH) and 15 g/L of agar to water and then autoclaved.
Plated were samples at dilutions of 10^−6 and 10^−3 for low and high electric field treatments, respectively, and at 10^−6 and 10^−5 for controls All samples containing 100 μL of pulsed or diluted cultures were plated on LB agar plates and counted after overnight incubation at 37° C. […]

[3] = system: methicillin resistant Staphylococcus aureus (USA300-0114 strain); experiment: Inactivation of MRSA by 300 ns electric pulses and/or antibiotics (CFU plating); assay type: cell-based; settings: 20 μg/mL + 30 kV/cm EPs
Description: as §1, §2
as §3, with “condition. […]” for “condition.”
Removed was 20 μL from each cuvette and added to 180 μL of PBS in a 96-well dish in triplicate. […] These plates were then cultured overnight in an incubator at 37° C., and counted the next day.

Structure (SMILES): CO[C@H]1/C=C/O[C@@]2(C)Oc3c(C)c(O)c4c(O)c(c(/C=N/N5CCN(C)CC5)c(O)c4c3C2=O)NC(=O)/C(C)=C\C=C\[C@H](C)[C@H](O)[C@@H](C)[C@@H](O)[C@@H](C)[C@H](OC(C)=O)[C@@H]1C [rifampicin]
- log reduction of E. coli [1]: 6 log
- log-reduction of S. aureus ([2]; 20 kV/cm EPs + 0.2 μg/mL): 1 log
- log-reduction of S. aureus ([2]; 20 kV/cm EPs + 2 μg/mL): 1 log
- log-reduction of S. aureus ([2]; 20 kV/cm EPs + 20 μg/mL): 1 log
- synergy (synergistic inactivation), MRSA [3]: approximately 1.5 log
